Earlier results as cited in patent US11154501B2, “Method of enhancing the efficacy and stability of ingredients in suspensions” (Nanophase Technologies Corporation, priority 2019, dated 2021).

Conditions: for solubility limit: in water at 25° C.

Structure (SMILES) | solubility (in words) (in neutral water) | solubility limit
O.O.O=c1c(O)c(-c2ccc(O)c(O)c2)oc2cc(O)cc(O)c12 [quercetin dihydrate] | very poorly soluble | –
NC(=O)NC1NC(=O)NC1=O (stereo not drawn) [allantoin, (2,5-dioxo-4-imidazolidinyl) urea, reference compound] | – | 0.5%
C[C@@H]1O[C@@H](OC[C@H]2O[C@@H](Oc3c(-c4ccc(O)c(O)c4)oc4cc(O)cc(O)c4c3=O)[C@H](O)[C@@H](O)[C@@H]2O)[C@H](O)[C@H](O)[C@H]1O [rutin] | – | 0.013%
